Values after ≈ are worked out from the molar mass of the structure shown.
Tests used:
EBV (Daudi Cells) = assay: EBV VCA ELISA in superinfected Daudi cells; type: cell-based, Epstein-Barr virus; details: human gammaherpesvirus 4, 96 h, 4 days
Description: The EBV prototype virus used in the assay of this work was P3HR-1, which is derived from supernatant fluids of the P3HR-1 cell line. This cell line produces nontransforming virus that induces the production of early antigen (EA) and viral capsid antigen (VCA) after primary infection or superinfection of B cell lines. Daudi was the test-cell line, which is a low-level producer that contains 152 EBV genome copies per cell. These cells respond to superinfection by EBV by expressing EA and VCA. The cell line was maintained in RPMI-1640 medium supplemented by 10% FBS, L-glutamine and 100 micrograms per milliliter gentamicin. The cultures were fed twice weekly and the cell concentration adjusted to 3×10^5 cells per milliliter. The cells were kept at 37° C. in a humidified atmosphere with 5% CO2.
Daudi cells were infected and treated with humates as described above for HSV, HCMV, and VZV. The cultures were incubated for 4 days at 37° C. The cells were counted, washed and brought to the desired final concentration. For each dilution of humate, cells were added to triplicate wells of a 96-well plate and air-dried. The cells were then fixed for 20 minutes in an acetic acid/ethanol solution. […] The reaction was stopped by adding 3 Normal sulfuric acid, following which the plates were read on a microplate reader at 492 nanometers.

HSV-2 (HFF Cells) = assay: HSV-2 cytoprotection assay in HFF cells (crystal violet); type: cell-based, herpes simplex virus type 2; details: Human alphaherpesvirus 2, 72 h, 3 days
HSV-1 (HFF Cells) = assay: HSV-1 cytoprotection assay in HFF cells (crystal violet); type: cell-based, herpes simplex virus type 1; details: Human alphaherpesvirus 1, 72 h, 3 days
HCMV (HFF Cells) = assay: HCMV cytoprotection assay in HFF cells (crystal violet); type: cell-based, human cytomegalovirus; details: Human betaherpesvirus 5, 336 h, 14 days

Nc1nc2c(ncn2COCCO)c(=O)[nH]1 [Acyclovir]
IC50 (EBV (Daudi Cells)): 1.8 to 2.4 µg/mL (≈ 7.99 to 10.7 µM)
IC50 (HSV-2 (HFF Cells)): 1.1 to 1.3 µg/mL (≈ 4.88 to 5.77 µM)
IC90 (HSV-2 (HFF Cells)): 9.5 µg/mL (≈ 42.2 µM)
IC50 (HSV-1 (HFF Cells)): 1.2 to 1.6 µg/mL (≈ 5.33 to 7.1 µM)
IC90 (HSV-1 (HFF Cells)): 7.9 µg/mL (≈ 35.1 µM)

Nc1nc(O)c2ncn(COC(CO)CO)c2n1 [Ganciclovir]
IC50 (HCMV (HFF Cells)): 0.3 to 0.76 µg/mL (≈ 1.18 to 2.98 µM)
IC90 (HCMV (HFF Cells)): 0.6 to 1.3 µg/mL (≈ 2.35 to 5.09 µM)

Reference: patent publication US6524566B2, “Synthetic soil-extract materials and medicaments for herpes viruses based thereon” (Laub Biochemicals Corp., priority 1997, dated 2003)
